From patent EP4527828A1, “BIPHENYL COMPOUND, PHARMACEUTICAL COMPOSITION, METHOD FOR PREPARING SAME, AND USE THEREOF” (Longivitron (Suzhou) Biotechnology Co., Ltd, priority 2022, dated 2023)
Where two headings read alike, the source gives them in different places.

How the values were obtained:
mouse melanoma B16F10 [1] = assay type: in vivo; conditions: B16F10, Table 6, 100 mg/kg ip once, after 15 days of administration
Protocol: (§1) (1) 43 8-week-old female C57B/L mice were selected and divided into 5 cages. One preserved B16F10 tumor-bearing female C57L mouse was sacrificed by cervical dislocation. 75% alcohol was sprayed on the skin of the mouse in a laminar flow cabinet, and the tumor tissue of the tumor-bearing mouse was separated by sterilized surgical instruments and cut into a sterilized 5 mL homogenizer with ophthalmic scissors. The tumor tissue was slowly milled on ice to form a tumor fluid. The number of cells was 6.85 × 10^7 cells/mL as counted with a BioRad counting instrument. The tumor fluid was placed in an Erlenmeyer flask in an ice bath for later use. The tumor fluid was evenly aspirated using a 1 mL sterile syringe and inoculated 0.2 mL/C57/L mouse. After the inoculation was completed, the mice continued to be fed under the initial feeding conditions.
(2) Animal grouping and administration: On the second day after tumor fluid inoculation of C57B/L mice, 43 mice were randomly grouped: 10 mice in a control group, 8 mice in a Compound 4-20 mg/kg group, 8 mice in a Compound 4-30 mg/kg group, 8 mice in a Compound 4-40 mg/kg group, and 9 mice in a positive control drug cyclophosphamide CTX-100 mg/kg group. The mice were weighed and administered.
(3) Drug preparation: The corresponding amounts of the drugs were weighed according to the final concentrations of the experimental groups. The drugs of the Compound 4-20 mg/kg group and the Compound 4-30 mg/kg group were prepared with 0.25% CMCNa + Tween 80 and administered orally once a day. The drug of Compound 4-40 mg/kg was prepared with normal saline + Tween 80 and administered intraperitoneally. CTX was prepared with normal saline and administered intraperitoneally once. The mice in the control group were given 0.25% CMCNa solution orally.
(§2) (4) The animals were sacrificed, and the tumors were separated and weighed. The animals in each group were treated immediately 1 h after administration on the last day and weighed, and the tumor tissue was weighed.

[2] = tested on: mouse liver cancer HEPA1-6; assay type: in vivo; conditions: HEPA1-6, 100 mg/kg ip once, after 27 days of administration
Protocol: (1) 32 8-week-old female C57L mice were selected and divided into 5 cages. HEPA1-6 cells cultured with DMEM + 10% FBS in vitro were washed with PBS and digested with 0.25% trypsin for 3 min. The digestion was terminated with a serum-containing medium, the cells were centrifuged at 2500 rpm for 5 min, the supernatant was discarded, and the cells were resuspended with an appropriate amount of PBS twice. The number of cells was 1.14 × 10^7 cells/mL as counted with a BioRad counting instrument. The cell suspension was placed in an Erlenmeyer flask in an ice bath for later use. The tumor fluid was evenly aspirated using a 1 mL sterile syringe and inoculated 0.2 mL/mouse. After the inoculation was completed, the mice continued to be fed under the initial feeding conditions.
(2) Animal grouping: On the second day after tumor fluid inoculation of C57B/L mice, 32 mice were randomly grouped: 8 mice in a control group, 6 mice in a Compound 4-5 mg/kg group, 6 mice in a Compound 4-10 mg/kg group, 6 mice in a Compound 4-20 mg/kg group, and 6 mice in a positive control drug cyclophosphamide (CTX)-100 mg/kg group. The drug test groups were given the drugs to be tested orally once a day, and the positive control drug CTX was injected intraperitoneally once. The mice were weighed and administered daily.
(3) Drug preparation: The corresponding amounts of the drugs to be tested were weighed according to the final concentrations of the experimental groups. The drugs of the Compound 4-5 mg/kg group, the Compound 4-10 mg/kg group, and the Compound 4-20 mg/kg group were prepared with 5% CMCNa + Tween 80, and CTX was prepared with normal saline. The mice in the control group were given 5% CMCNa solution orally. The dosages were as follows: 0.4 mL/20 g body weight of the animal for intragastric administration, and 0.2 mL/20 g body weight of the animal for intraperitoneal injection.
(4) The animals were sacrificed, and the tumors were separated and weighed. The animals in each group were treated immediately 1 h after administration on the last day and weighed, and the tumor tissue was separated and weighed.

mouse melanoma B16F10 [3] = assay type: in vivo; conditions: B16F10, Table 7, 100 mg/kg intraperitoneally once
Protocol: as §1, §2
Animal grouping and administration: On the second day after tumor fluid inoculation of C57B/L mice, tumor-bearing mice were randomly grouped: a control group, a Compound 8-5 mg/kg group, a Compound 8-10 mg/kg group, a Compound 8-20 mg/kg group, and a positive control drug cyclophosphamide CTX-100 mg/kg group. The animals were weighed and administered daily. The drugs to be tested were administered orally daily, and the positive control drug CTX was administered intraperitoneally once. After the experiment was completed, the body weights and tumor weights of the animals were weighed, and the tumor weight inhibition rate (%) was calculated.

LAG3/FGL1 = target: T1, LAG3/FGL1 (Homo sapiens, UniProt P18627); experiment: HTRF binding inhibition of LAG3 and its ligand FGL1; conditions: binding inhibition LAG3/FGL1; read-out: IC50
T1 sequence (P18627 23-450 limits assumed): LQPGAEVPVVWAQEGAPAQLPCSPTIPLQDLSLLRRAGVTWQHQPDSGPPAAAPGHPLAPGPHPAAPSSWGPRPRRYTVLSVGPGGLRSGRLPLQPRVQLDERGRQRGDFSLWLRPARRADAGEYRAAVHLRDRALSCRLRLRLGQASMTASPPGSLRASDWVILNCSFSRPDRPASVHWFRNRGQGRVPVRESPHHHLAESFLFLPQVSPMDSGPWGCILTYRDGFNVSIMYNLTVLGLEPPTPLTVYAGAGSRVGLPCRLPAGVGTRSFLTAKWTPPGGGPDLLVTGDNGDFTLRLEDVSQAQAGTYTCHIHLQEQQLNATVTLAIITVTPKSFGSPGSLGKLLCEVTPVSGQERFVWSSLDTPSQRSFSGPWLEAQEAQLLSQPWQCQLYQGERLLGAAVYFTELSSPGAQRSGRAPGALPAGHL
Protocol: Reagent preparation: ① Tag1-LAG3 protein: a protein solution with a concentration of 50 nM (20 µL with a final system concentration of 10 nM) was prepared using a diluent. ② Tag2-FGL1 protein: a protein solution with a concentration of 100 nM (20 µL with a final system concentration of 20 nM) was prepared using a diluent. ③ Anti-Tag1-Tb: a 100× stock solution was diluted with a detection buffer to a 1 × stock solution. ④ Anti-Tag2-XL665: a 100× stock solution was diluted with a detection buffer to a 1 × stock solution.
Assay step: (1) 2 µL of compound solution (with a concentration to be measured of 10×) was added to a 384-well opaque plate having a white background, 4 µL of Tag1-LAG3 protein and 4 µL of Tag2-FGL1 protein were added, respectively, and the plate was incubated at room temperature for 15 min; (2) Anti-Tag1-Tb and Anti-Tag2-XL665 were mixed at a ratio of 1:1 in advance, and 10 µL of mix solution was added to each well; (3) the plate was gently mixed, sealed, and incubated at room temperature for 1 h or overnight before detection.

LAG3/MHCII = target: T2, LAG3/MHCII (Homo sapiens, UniProt P18627); experiment: HTRF binding inhibition of LAG3 and its ligand MHCII; conditions: binding inhibition LAG3/MHCII
T2 sequence (P18627 23-450 limits assumed): T1 sequence (P18627 23-450 limits assumed)
Protocol: HTRF (Homogeneous time-resolved fluorescence) is based on two techniques, fluorescence resonance energy transfer (FRET) and time-resolved fluorescence (TRF). The detection was carried out using a 384-well plate. 2 µL of a compound to be tested with an appropriate concentration was collected, 4 µL of Tag1-LAG3 protein (with a final concentration of 10 nmol·L^-1) was added, 4 µL of Tag2-MHCII (with a final concentration of 20 nmol·L^-1) was added, and the plate was incubated at room temperature for 15 min. 10 µL of Anti-Tag1-Tb working solution (prepared by adding 25 µL of Anti-Tag1-Tab mother solution to 2475 µL of dilution buffer) was added, 10 µL of Anti-Tag2-XL665 working solution (prepared by adding 25 µL of Tag2-XL665 mother solution to 2475 µL of dilution buffer) was added, and the plate was sealed with a film and incubated at room temperature for 1 h. The detection was carried out using a Perkin Elma Envision instrument.

| SMILES | Inhibition rate (mouse melanoma B16F10 [1]) [%] | Tumor weight (mouse melanoma B16F10 [1]) [g] | Inhibition rate [2] [%] | Tumor weight [2] [g] | Inhibition rate (mouse melanoma B16F10 [3]) [%] | Tumor weight (mouse melanoma B16F10 [3]) [g] | IC50 (LAG3/FGL1) [µM] | IC50 (LAG3/MHCII) [µM] |
| --- | --- | --- | --- | --- | --- | --- | --- | --- |
| O=P1(N(CCCl)CCCl)NCCCO1 (centres unmarked) [CTX, cyclophosphamide, reference compound] | 61.20 | 1.128 ± 0.394 | -18.65 | 0.804 ± 0.459 | 82.93 | 0.30 ± 0.10 | – | – |
| CCCCCCOc1ccc(C(=O)NCCCCNC(=O)C(F)(F)F)cc1-c1cc(C(=O)NCCCCNC(=O)C(F)(F)F)ccc1OCCCCCC [Compound 13] | – | – | – | – | – | – | 46 | 4.01 |
